pEC50: −log10 of the molar value. Values after ≈ are worked out from the molar mass of the structure shown.
Legend:
[1] = Phosphate-buffered saline (PBS) solubility of compounds; format: physicochemical; details: aqueous buffer, thermodynamic from solid, PBS pH 7.5, 0.5 mg/mL, vortexed 90 min, filtered, LC-MS/MS, read-out: Solubility Range
Description: PBS solutions (pH 7.5) were prepared according to the following compositions and stored at 4° C. Test compounds were dissolved in PBS (pH 7.5) at 0.5 mg/mL and vortexed for 90 min. The PBS solution was sequentially filtered through a 0.45, 1.2, […] syringe filter. Concentration of test compounds were determined using LC-MS/MS with appropriate dilution of the samples.

human wild type-CFTR = human wild type-CFTR (Homo sapiens, UniProt P13569); experiment: Cell-based YFP assay; parameters: expressed in transfected cells; host or cells: CHO-K1 (Chinese hamster ovary); details: CHO-K1 cells expressing human wild type-CFTR and YFP-H148Q/I152L; forskolin 20 μM = 100% activity; read-out: Cell-based YFP Assay (EC50) Concentration Range
How it was run: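 I⁻-driven YFP fluorescence quenching at 37 °C: 2 s baseline, addition of 140 mM iodide solution, then 14 s of readings at 0.4 s intervals. Cells were CHO-K1 expressing human wild-type CFTR plus YFP-H148Q/I152L. EC50 derived from averaged triplicates.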

Sequence of human wild type-CFTR (P13569 whole entry): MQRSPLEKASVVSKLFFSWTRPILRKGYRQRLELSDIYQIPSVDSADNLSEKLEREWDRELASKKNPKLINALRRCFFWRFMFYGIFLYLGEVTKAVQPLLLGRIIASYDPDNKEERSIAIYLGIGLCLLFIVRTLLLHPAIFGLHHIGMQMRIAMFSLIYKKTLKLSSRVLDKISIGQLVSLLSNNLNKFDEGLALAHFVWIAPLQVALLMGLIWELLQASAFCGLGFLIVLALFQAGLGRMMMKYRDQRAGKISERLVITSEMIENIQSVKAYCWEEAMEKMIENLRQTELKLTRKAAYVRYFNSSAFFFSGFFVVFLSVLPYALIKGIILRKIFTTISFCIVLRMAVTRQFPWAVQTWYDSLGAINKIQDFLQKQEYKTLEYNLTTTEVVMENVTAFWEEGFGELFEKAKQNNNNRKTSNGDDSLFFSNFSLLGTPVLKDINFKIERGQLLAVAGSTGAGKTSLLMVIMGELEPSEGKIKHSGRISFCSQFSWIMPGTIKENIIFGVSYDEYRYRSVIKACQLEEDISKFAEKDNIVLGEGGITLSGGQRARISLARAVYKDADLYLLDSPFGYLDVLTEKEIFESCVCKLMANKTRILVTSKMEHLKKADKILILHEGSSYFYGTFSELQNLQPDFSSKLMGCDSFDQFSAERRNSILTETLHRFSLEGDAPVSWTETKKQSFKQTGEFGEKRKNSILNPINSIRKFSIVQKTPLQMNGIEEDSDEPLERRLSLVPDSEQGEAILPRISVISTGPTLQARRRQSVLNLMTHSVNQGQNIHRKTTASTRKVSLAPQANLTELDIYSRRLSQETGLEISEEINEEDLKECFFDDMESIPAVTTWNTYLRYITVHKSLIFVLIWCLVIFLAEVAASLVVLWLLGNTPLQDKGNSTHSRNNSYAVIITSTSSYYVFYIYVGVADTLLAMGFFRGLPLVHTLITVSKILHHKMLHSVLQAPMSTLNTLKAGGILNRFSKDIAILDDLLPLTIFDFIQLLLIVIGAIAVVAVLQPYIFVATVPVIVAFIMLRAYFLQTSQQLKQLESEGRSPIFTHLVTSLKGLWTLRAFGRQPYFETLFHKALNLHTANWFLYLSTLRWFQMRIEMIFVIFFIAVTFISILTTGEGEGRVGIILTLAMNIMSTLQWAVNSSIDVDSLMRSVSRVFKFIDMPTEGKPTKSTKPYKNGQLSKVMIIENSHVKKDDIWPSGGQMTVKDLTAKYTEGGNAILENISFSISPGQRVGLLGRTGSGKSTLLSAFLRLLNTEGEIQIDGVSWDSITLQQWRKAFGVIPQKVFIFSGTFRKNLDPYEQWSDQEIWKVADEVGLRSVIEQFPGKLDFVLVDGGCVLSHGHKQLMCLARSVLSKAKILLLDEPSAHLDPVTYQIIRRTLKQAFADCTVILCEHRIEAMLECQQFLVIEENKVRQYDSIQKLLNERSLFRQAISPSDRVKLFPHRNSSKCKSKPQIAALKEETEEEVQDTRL

| Compound | solubility at 90 min [1] [µg/mL] | pEC50 (human wild type-CFTR) |
| --- | --- | --- |
| COc1ccc(-c2ccnc3cc(C(=O)Nc4cccc(C(=O)N5CCOCC5)c4)nn23)cc1OC [Compound 55, 7-(3,4-dimethoxyphenyl)-N-(3-(morpholine-4-carbonyl)phenyl)pyrazolo [1,5-a]pyrimidine-2-carboxamide] | < 0.1 | > 6.70 |
| COC(=O)[C@@H]1CCCN1C(=O)c1ccc(NC(=O)c2cc3nccc(-c4ccc(OC)c(OC)c4)n3n2)cc1 [Compound 47, methyl (4-(7-(3,4-dimethoxyphenyl)pyrazolo [1,5-a]pyrimidine-2-carboxamido)benzoyl)-L-prolinate] | < 0.1 | > 6.70 |
| COC(=O)c1ccc(NC(=O)c2cc3nccc(-c4ccc(OC)c(Cl)c4)n3n2)cc1 [Compound 39, methyl 4-(7-(3-chloro-4-methoxyphenyl)pyrazolo [1,5-a]pyrimidine-2-carboxamido)benzoate] | < 0.1 | 5.70 to 6.70 |
| COc1ccc(-c2ccnc3cc(C(=O)Nc4ccc(C(=O)N5CCN(C)CC5)c(Cl)c4)nn23)cc1OC [Compound 161, N-(3-chloro-4-(4-methylpiperazine-1-carbonyl)phenyl)-7-(3,4-dimethoxyphenyl)pyrazolo [1,5-a]pyrimidine-2-carboxamide] | 0.1 to 10 (≈ 0.187 to 18.7 µM) | 5.70 to 6.70 |
| COC(=O)[C@H](C)NC(=O)c1ccc(NC(=O)c2cc3nccc(-c4ccc(OC)c(OC)c4)n3n2)cc1 [Compound 42, methyl (4-(7-(3,4-dimethoxyphenyl)pyrazolo [1,5-a]pyrimidine-2-carboxamido)benzoyl)-L-alaninate] | < 0.1 | > 6.70 |
| COc1ccc(-c2ccnc3cc(C(=O)Nc4ccc(NC(=O)CN)cc4)nn23)cc1OC [Compound 283, N-(4-(2-aminoacetamido)phenyl)-7-(3,4-dimethoxyphenyl)pyrazolo [1,5-a]pyrimidine-2-carboxamide] | < 0.1 | 5.70 to 6.70 |
| COc1ccc(-c2ccnc3cc(C(=O)Nc4ccc(C(=O)N[C@@H](CC(C)C)C(=O)O)cc4)nn23)cc1OC [Compound 85, (4-(7-(3,4-dimethoxyphenyl)pyrazolo[1,5-a]pyrimidine-2-carboxamido)benzoyl)-L-leucine] | > 10 | 5.70 to 6.70 |
| COc1ccc(-c2ccnc3cc(C(=O)Nc4ccc(C(=O)OCCCN5CCN(C)CC5)cc4)nn23)cc1OC [Compound 165, 3-(4-methylpiperazin-1-yl)propyl 4-(7-(3,4-dimethoxyphenyl)pyrazolo[1,5-a]pyrimidine-2-carboxamido)benzoate] | < 0.1 | 5.70 to 6.70 |
| COc1ccc(-c2ccnc3cc(C(=O)Nc4ccc(C(=O)N5CC6(CN(C)C6)C5)cc4)nn23)cc1OC [Compound 166, 7-(3,4-dimethoxyphenyl)-N-(4-(6-methyl-2,6-diazaspiro[3.3]heptane-2-carbonyl)phenyl)pyrazolo [1,5-a]pyrimidine-2-carboxamide] | < 0.1 | 5.70 to 6.70 |
| COc1ccc(-c2ccnc3cc(C(=O)Nc4ccc(C(=O)O)c(O)c4)nn23)cc1OC [Compound 168, 4-(7-(3,4-dimethoxyphenyl)pyrazolo[1,5-a]pyrimidine-2-carboxamido)-2-hydroxybenzoic acid] | < 0.1 | 5.70 to 6.70 |
| COc1ccc(-c2ccnc3cc(C(=O)Nc4ccc(NC(=O)[C@@H](NC(=O)OC(C)(C)C)C(C)C)cc4)nn23)cc1OC [Compound 282, tert-butyl (S)-(1-((4-(7-(3,4-dimethoxyphenyl)pyrazolo [1,5-a]pyrimidine-2-carboxamido)phenyl)amino)-3-methyl-1-oxobutan-2-yl)carbamate] | < 0.1 | > 6.70 |
| COc1ccc(-c2ccnc3cc(C(=O)Nc4ccc(C(=O)N5CCOCC5)cc4F)nn23)cc1OC [Compound 157, 7-(3,4-dimethoxyphenyl)-N-(2-fluoro-4-(morpholine-4-carbonyl)phenyl)pyrazolo[1,5-a]pyrimidine-2-carboxamide] | < 0.1 | > 6.70 |
| COc1ccc(-c2ccnc3cc(C(=O)N4CC[C@H](NC(=O)OC(C)(C)C)C4)nn23)cc1OC [Compound 145, tert-butyl (S)-(1-(7-(3,4-dimethoxyphenyl)pyrazolo [1,5-a]pyrimidine-2-carbonyl)pyrrolidine-3-yl)carbamate] | 0.1 to 10 (≈ 0.214 to 21.4 µM) | 5.70 to 6.70 |
| COC(=O)[C@H](CO)NC(=O)c1ccc(NC(=O)c2cc3nccc(-c4ccc(OC)c(OC)c4)n3n2)cc1 [Compound 43, methyl (4-(7-(3,4-dimethoxyphenyl)pyrazolo [1,5-a]pyrimidine-2-carboxamido)benzoyl)-L-serinate] | < 0.1 | > 6.70 |
| COc1ccc(-c2ccnc3cc(C(=O)Nc4ccc(C(=O)OCCN5CCOCC5)cc4)nn23)cc1OC [Compound 164, 2-morpholinoethyl 4-(7-(3,4-dimethoxyphenyl)pyrazolo [1,5-a]pyrimidine-2-carboxamido)benzoate] | < 0.1 | > 6.70 |
| COc1ccc(-c2ccnc3cc(C(=O)N[C@H]4CC[C@H](C(=O)N5CCOCC5)CC4)nn23)cc1OC [Compound 75, 7-(3,4-dimethoxyphenyl)-N-((1R,4R)-4-(morpholine-4-carbonyl)cyclohexyl) pyrazolo[1,5-a]pyrimidine-2-carboxamide] | > 10 | ≤ 5.70 |
| COc1ccc(-c2ccnc3cc(C(=O)Nc4ccc(C(=O)N5CCOCC5)c(Cl)c4)nn23)cc1OC [Compound 160, N-(3-chloro-4-(morpholine-4-carbonyl)phenyl)-7-(3,4-dimethoxyphenyl) pyrazolo[1,5-a]pyrimidine-2-carboxamide] | < 0.1 | 5.70 to 6.70 |
| COc1ccc(-c2ccnc3cc(C(=O)NC45CC(C(=O)N6CCN(C(=O)OC(C)(C)C)CC6)(C4)C5)nn23)cc1OC [Compound 92, tert-butyl 4-(3-(7-(3,4-dimethoxyphenyl)pyrazolo [1,5-a]pyrimidine-2-carboxamido)bicyclo [1.1.1]pentane-1-carbonyl)piperazine-1-carboxylate] | < 0.1 | > 6.70 |
| COC(=O)c1ccc(NC(=O)c2cc3nccc(-c4ccc(OC)c(OC)c4)n3n2)cc1O [Compound 167, methyl 4-(7-(3,4-dimethoxyphenyl)pyrazolo [1,5-a]pyrimidine-2-carboxamido)-2-hydroxybenzoate] | < 0.1 | > 6.70 |
| COc1ccc(-c2ccnc3cc(C(=O)N[C@H]4CC[C@@H](C(=O)N5CCN(C(=O)OC(C)(C)C)CC5)CC4)nn23)cc1OC [Compound 73, tert-butyl 4-((1S,4S)-4-(7-(3,4-dimethoxyphenyl)pyrazolo [1,5-a]pyrimidine-2-carboxamido)cyclohexane-1-carbonyl)piperazine-1-carboxylate] | 0.1 to 10 (≈ 0.169 to 16.9 µM) | 5.70 to 6.70 |
| COc1ccc(-c2ccnc3cc(C(=O)N4CCN(C(=O)OC(C)(C)C)CC4)nn23)cc1OC [Compound 62, tert-butyl 4-(7-(3,4-dimethoxyphenyl)pyrazolo[1,5-a]pyrimidine-2-carbonyl)piperazine-1-carboxylate] | 0.1 to 10 (≈ 0.214 to 21.4 µM) | 5.70 to 6.70 |
| COC(=O)[C@H](Cc1ccccc1)NC(=O)c1ccc(NC(=O)c2cc3nccc(-c4ccc(OC)c(OC)c4)n3n2)cc1 [Compound 46, methyl (4-(7-(3,4-dimethoxyphenyl)pyrazolo [1,5-a]pyrimidine-2-carboxamido)benzoyl)-L-phenylalaninate] | < 0.1 | > 6.70 |
| COc1ccc(-c2ccnc3cc(C(=O)Nc4cccnc4)nn23)cc1OC [Compound 18, 7-(3,4-dimethoxyphenyl)-N-(pyridin-3-yl) pyrazolo[1,5-a]pyrimidine-2-carboxamide] | < 0.1 | 5.70 to 6.70 |
| COC(=O)c1ccc(NC(=O)c2cc3nccc(-c4cc(OC)c(OC)c(OC)c4)n3n2)cc1 [Compound 32, methyl 4-(7-(3,4,5-trimethoxyphenyl)pyrazolo [1,5-a]pyrimidine-2-carboxamido)benzoate] | < 0.1 | > 6.70 |
| COc1ccc(-c2ccnc3cc(C(=O)Nc4ccc(C(=O)OCc5ccccc5)cn4)nn23)cc1OC [Compound 114, benzyl 6-(7-(3,4-dimethoxyphenyl)pyrazolo [1,5-a]pyrimidine-2-carboxamido)nicotinate] | < 0.1 | > 6.70 |
| COc1ccc(-c2ccnc3cc(C(=O)Nc4ccc(C(=O)NCCN5CCOCC5)cc4)nn23)cc1OC [Compound 139, 7-(3,4-dimethoxyphenyl)-N-(4-((2-morpholinoethyl)carbamoyl)phenyl)pyrazolo[1,5-a]pyrimidine-2-carboxamide] | < 0.1 | > 6.70 |
| CCOc1ccc(NC(=O)Nc2cc3nccc(-c4ccc(OC)c(OC)c4)n3n2)cc1 [Compound 109, 1-(7-(3,4-dimethoxyphenyl)pyrazolo[1,5-a]pyrimidin-2-yl)-3-(4-ethoxyphenyl)urea] | < 0.1 | 5.70 to 6.70 |
| COc1ccc(-c2ccnc3cc(C(=O)Nc4ccc(C(=O)N5CCOCC5)c(O)c4)nn23)cc1OC [Compound 169, 7-(3,4-dimethoxyphenyl)-N-(3-hydroxy-4-(morpholine-4-carbonyl)phenyl)pyrazolo[1,5-a]pyrimidine-2-carboxamide] | < 0.1 | > 6.70 |

— US20240199623A1 (ILDONG PHARMACEUTICAL CO., LTD., priority 2020, published 2024)
